Measurements published in patent US20120130150A1, “APPARATUS AND METHOD OF TREATMENT UTILIZING A VARYING ELECTROMAGNETIC ENERGIZATION PROFILE” (International Scientific Pty Ltd., priority 2009, published 2012).
Counter-ions that a name gives are not always drawn.

What was measured:
Type in all cases: in vitro ADME
[1] = Franz-type diffusion of 5-aminolevulinic acid through human epidermis; settings: at 4 h; 2% w/v solution in PBS pH 7.4; with Dermaportation only (0-4 h)
Procedure: Overview: ALA solution was applied to the surface of human epidermis for a contact period of up to 4 h. Dermaportation applied continuously from 0 to 4 h was compared to passive diffusion. ALA penetrating the epidermis would diffuse into a receptor fluid of phosphate buffered saline (pH 7.4: PBS). The receptor fluid was analysed for ALA content by high performance liquid chromatography (HPLC).
In vitro epidermal penetration: Human skin was obtained following abdominoplasty surgery under existing approval from the Human Research Ethics Committee of Curtin University. Skin from a donor was used in this study. The epidermis was heat separated from the dermis using standard procedures (Kligman and Christophers 1963). The epidermis was mounted in Franz-type diffusion cells with the stratum corneum facing the donor compartment. Skin integrity was determined by conductance measurement.
The receptor compartment was filled with phosphate buffered saline pH 7.4, stirred continuously and maintained at 37° C. throughout the experiment. ALA solution (2% w/v of ALA in phosphate buffered saline pH 7.4) was applied to the donor side of the epidermis. Dermaportation (cycle 2) was applied from time 0 to 4 h. […] The content of ALA in receptor fluid samples was analysed by HPLC with ultraviolet detection using a validated assay procedure. […]

[2] = Franz-type diffusion of Voltaren Emulgel diclofenac through human epidermis, Dermaportation vs passive; settings: for flux (skin penetration): PBS receptor, 37° C.; for cumulative amount penetrated: at 8 h
Procedure: Human epidermis was mounted in vertical Franz type diffusion cells (stratum corneum facing up), according to the method of Kligman and Christophers (1963). Voltaren Emulgel® (1 g containing 1.16% diclofenac diethylammonium salt; Novartis) was applied to the donor compartment of diffusion cells, with PBS in the receptor compartment (3.0 mL; stirred continuously; 37° C.). Dermaportation coils were placed around the exterior of 4 cells, with 4 additional cells without coils (passive control). Dermaportation energy was applied from time 30-60 min. Samples of the receptor solution were removed and replaced with fresh buffer over an 8 h period. All samples were analysed for diclofenac content by HPLC with UV detection by a validated method. The cumulative amount of diclofenac in receptor versus time was plotted and flux values calculated from the slopes per group. Statistical analyses used a t-test on the delta scores from the zero time point to the time point in question.

[3] = Franz-type diffusion of hydrocortisone through human epidermis, Dermaportation vs passive; settings: for flux (skin penetration): saturated solution in 20:80 ethanol:PBS pH 7.4; for cumulative amount penetrated: at 30 min
Procedure: (§1) Human skin was obtained following abdominoplasty surgery under existing approval from the Human Research Ethics Committee of Curtin University.
(§2) The epidermis was heat separated from the dermis using standard procedures (Kligman and Christophers 1963). The epidermis was mounted in Franz-type diffusion cells with the stratum corneum facing the donor compartment. Skin integrity was determined by conductance measurement. The receptor compartment was filled with 20:80 ethanol:phosphate buffered saline pH 7.4, stirred continuously and maintained at 37° C. throughout the experiment. Hydrocortisone solution (1 mL of saturated solution in 20:80 ethanol:phosphate buffered saline pH 7.4; solubility approx 1 mg/mL) was applied to the donor side of the epidermis.
(§3) Dermaportation was applied from time 0 to 4 h. Samples were removed from the receptor fluid at time points up to 4 h. At each time point the receptor fluid volume was replaced with fresh receptor solution preheated to 37° C. Four Dermaportation cells and three passive cells (no Dermaportation) were conducted using skin from the abdominal region of a donor. The content of hydrocortisone in receptor fluid samples was analysed by HPLC with ultraviolet detection using a validated assay procedure.
The cumulative amount of hydrocortisone in receptor versus time was plotted and flux values calculated from the slopes per group.

[4] = Franz-type diffusion of naltrexone through human epidermis, Dermaportation vs passive; settings: for flux0-2h (skin penetration): 0.5% w/v in PBS pH 7.4
Procedure: as §1
as §2, with “phosphate” for “20:80 ethanol:phosphate”, “Naltrexone (0.5% w/v)” for “Hydrocortisone solution (1 mL of saturated solution”, “(pH 7.4)” for “pH 7.4; solubility approx 1 mg/mL)”
as §3, with “up to 8 h. At” for “up to 4 h. At”, “cells and 4 passive cells” for “cells and three passive cells”, “content of naltrexone in receptor” for “content of hydrocortisone in receptor”
The cumulative amount of naltrexone in receptor versus time was plotted and flux values calculated from the slopes per group.

## NCC(=O)CCC(=O)O [ALA, 5-aminolevulinic acid]
[1]
  applied dose penetrated to the receptor: approximately 40%

## O=C(O)Cc1ccccc1Nc1c(Cl)cccc1Cl [diclofenac, diclofenac diethylammonium salt]
[2]; Dermaportation applied 30-60 min, Voltaren Emulgel 1 g (1.16% diclofenac diethylammonium salt)
  flux (skin penetration): 2.97 µg/h
[2]; Dermaportation applied 30-60 min
  cumulative amount penetrated: 14.25 µg
[2]; passive diffusion
  cumulative amount penetrated: 7.59 µg
[2]; passive administration, Voltaren Emulgel 1 g
  flux (skin penetration): 1.58 µg/h
[2]; passive diffusion, any time point up to 8 h
  diffusion level versus zero time point (t-test delta score): did not reach diffusion levels different from 0

## C[C@]12CCC(=O)C=C1CC[C@@H]1[C@@H]2[C@@H](O)C[C@@]2(C)[C@H]1CC[C@]2(O)C(=O)CO [hydrocortisone, Hydrocortisone]
[3]; Dermaportation 0-4 h
  flux (skin penetration): 2.44 μg/cm^2/h
[3]; Dermaportation
  cumulative amount penetrated: 93.22 µg
[3]; passive diffusion
  cumulative amount penetrated: 2.51 µg
[3]; passive administration
  flux (skin penetration): 0.08 μg/cm^2/h

## O=C1CC[C@@]2(O)[C@H]3Cc4ccc(O)c5c4[C@@]2(CCN3CC2CC2)[C@H]1O5 [naltrexone, Naltrexone]
[4]; Dermaportation 0-4 h
  flux0-2h (skin penetration): 152.6 μg/cm^2/h
[4]; Dermaportation for 240 min, Time by Treat interaction p<0.05
  diffusion with Dermaportation compared with passive administration: diffused faster and in more quantity
[4]; passive administration
  flux0-2h (skin penetration): 1.6 μg/cm^2/h
